Experimental data as given in patent US11691980B2, “Liphagal analog and multi-targeted kinase inhibitor containing liphagal or analog thereof” (TOHOKU UNIVERSITY, priority 2017, dated 2023).

What was measured:
Type in all cases: biochemical
PASK = target: T1, PASK (Homo sapiens, UniProt Q96RG2); assay: mobility shift assay
T1 construct: purchased Carna Biosciences

RAK4 = target: T2, RAK4 (Homo sapiens, UniProt Q9NWZ3); assay: mobility shift assay
T2 construct: purchased Carna Biosciences

ALK(R1275Q) = target: T3, ALK(R1275Q) (Homo sapiens, UniProt Q9UM73, R1275Q); assay: mobility shift assay
T3 construct: purchased Carna Biosciences

HPK3 = target: T4, HPK3 (Homo sapiens, UniProt Q9H422); assay: mobility shift assay
T4 construct: purchased Carna Biosciences

ALK(L1196M) = target: T5, ALK(L1196M) (Homo sapiens, UniProt Q9UM73, L1196M); assay: mobility shift assay
T5 construct: purchased Carna Biosciences

LYNa = target: T6, LYNa (Homo sapiens, UniProt P07948); assay: mobility shift assay
T6 construct: purchased Carna Biosciences

DCAMKL2 = target: T7, DCAMKL2 (Homo sapiens, UniProt Q8N568); assay: mobility shift assay
T7 construct: purchased Carna Biosciences

CKIα = target: T8, CKIα (Homo sapiens, UniProt P48729); assay: mobility shift assay
T8 construct: purchased Carna Biosciences

TYRO3 = target: T9, TYRO3 (Homo sapiens, UniProt Q06418); assay: mobility shift assay
T9 construct: purchased Carna Biosciences

NEK9 = target: T10, NEK9 (Homo sapiens, UniProt Q8TD19); assay: mobility shift assay
T10 construct: purchased Carna Biosciences

FRK = target: T11, FRK (Homo sapiens, UniProt P42685); assay: mobility shift assay
T11 construct: purchased Carna Biosciences

QIK = target: T12, QIK (Homo sapiens, UniProt Q9H0K1); assay: mobility shift assay
T12 construct: purchased Carna Biosciences

CaMK1δ = target: T13, CaMK1δ (Homo sapiens, UniProt Q8IU85); assay: mobility shift assay
T13 construct: purchased Carna Biosciences

FER = target: T14, FER (Homo sapiens, UniProt P16591); assay: mobility shift assay
T14 construct: purchased Carna Biosciences

CDK4/CycD3 = CDK4/CycD3 (Homo sapiens, UniProt P11802); assay: IC50 by mobility shift assay; conditions: Table 3, CDK4, mobility shift assay; read-out: IC50 (μM), Kinase CDK4/CycD3
Excerpt: Next, the compounds produced in Production Examples described above were each assessed for its inhibitory activity against CDK4 by mobility shift assay. In addition, a combination showing the highest inhibitory activity is indicated by italics.

CK2α1/β = target: T15, CK2α1/β (Homo sapiens, UniProt P68400); assay: mobility shift assay
T15 construct: purchased Carna Biosciences

PLK1 = target: T16, PLK1 (Homo sapiens, UniProt P53350); assay: mobility shift assay
T16 construct: purchased Carna Biosciences

EGFR(T790/L858R) = target: T17, EGFR(T790/L858R) (Homo sapiens, UniProt P00533, L858R/T790M); assay: mobility shift assay
T17 construct: purchased Carna Biosciences

CHK2 = target: T18, CHK2 (Homo sapiens, UniProt O96017); assay: mobility shift assay
T18 construct: purchased Carna Biosciences

PDGFRα = target: T19, PDGFRα (Homo sapiens, UniProt P16234); assay: mobility shift assay
T19 construct: purchased Carna Biosciences

Nuak2 = target: T20, Nuak2 (Homo sapiens, UniProt Q9H093); assay: mobility shift assay
T20 construct: purchased Carna Biosciences

BMX = target: T21, BMX (Homo sapiens, UniProt P51813); assay: mobility shift assay
T21 construct: purchased Carna Biosciences

NPM1-ALK = target: T22, NPM1-ALK (Homo sapiens, UniProt Q9UM73); assay: mobility shift assay
T22 construct: purchased Carna Biosciences; the other entry of the earlier key: NPM1 (P06748, Nucleophosmin)

YES(T348I) = target: T23, YES(T348I) (Homo sapiens, UniProt P07947, T348I); assay: mobility shift assay
T23 construct: purchased Carna Biosciences

INSR = target: T24, INSR (Homo sapiens, UniProt P06213); assay: mobility shift assay
T24 construct: purchased Carna Biosciences

PDHK2 = target: T25, PDHK2 (Homo sapiens, UniProt Q15119); assay: mobility shift assay
T25 construct: purchased Carna Biosciences

PIM2 = PIM2 (Homo sapiens, UniProt Q9P1W9); assay: mobility shift assay
HER2 = target: T26, HER2 (Homo sapiens, UniProt P04626); assay: mobility shift assay
T26 construct: purchased Carna Biosciences

PDGFRα(V561D) = target: T27, PDGFRα(V561D) (Homo sapiens, UniProt P16234, V561D); assay: mobility shift assay
T27 construct: purchased Carna Biosciences

ROCK1 = target: T28, ROCK1 (Homo sapiens, UniProt Q13464); assay: mobility shift assay
T28 construct: purchased Carna Biosciences

MGC42105 = target: T29, MGC42105 (Homo sapiens, UniProt Q8IY84); assay: mobility shift assay
T29 construct: purchased Carna Biosciences

MARK1 = target: T30, MARK1 (Homo sapiens, UniProt Q9P0L2); assay: mobility shift assay
T30 construct: purchased Carna Biosciences

DDR1 = target: T31, DDR1 (Homo sapiens, UniProt Q08345); assay: mobility shift assay
T31 construct: purchased Carna Biosciences

FYN(isoform a) = target: T32, FYN(isoform a) (Homo sapiens, UniProt P06241); assay: mobility shift assay
T32 construct: purchased Carna Biosciences

ALK(G1202R) = target: T33, ALK(G1202R) (Homo sapiens, UniProt Q9UM73, G1202R); assay: mobility shift assay
T33 construct: purchased Carna Biosciences

SGK3 = target: T34, SGK3 (Homo sapiens, UniProt Q96BR1); assay: mobility shift assay
T34 construct: purchased Carna Biosciences

ROS = target: T35, ROS (Homo sapiens, UniProt P08922); assay: mobility shift assay
T35 construct: purchased Carna Biosciences

CDK6 = CDK6 (Homo sapiens, UniProt Q00534); assay: IC50 by mobility shift assay; conditions: Table 4, inhibitory activity against CDK6, mobility shift assay; read-out: IC50 (μM), Kinase
Excerpt: Next, the compounds produced in Production Examples described above were each assessed for its inhibitory activity against CDK6 by mobility shift assay. In addition, a combination showing the highest inhibitory activity is indicated by italics.

PIM2, sequence (Q9P1W9 whole entry): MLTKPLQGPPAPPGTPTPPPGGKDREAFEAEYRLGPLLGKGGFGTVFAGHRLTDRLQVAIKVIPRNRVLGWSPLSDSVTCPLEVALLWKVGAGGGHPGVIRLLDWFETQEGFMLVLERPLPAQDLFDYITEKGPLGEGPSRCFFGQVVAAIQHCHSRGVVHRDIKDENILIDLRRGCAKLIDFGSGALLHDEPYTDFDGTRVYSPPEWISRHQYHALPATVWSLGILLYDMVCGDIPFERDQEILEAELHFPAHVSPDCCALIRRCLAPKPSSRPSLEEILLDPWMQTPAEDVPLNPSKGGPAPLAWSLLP
T8 sequence (P48729 whole entry): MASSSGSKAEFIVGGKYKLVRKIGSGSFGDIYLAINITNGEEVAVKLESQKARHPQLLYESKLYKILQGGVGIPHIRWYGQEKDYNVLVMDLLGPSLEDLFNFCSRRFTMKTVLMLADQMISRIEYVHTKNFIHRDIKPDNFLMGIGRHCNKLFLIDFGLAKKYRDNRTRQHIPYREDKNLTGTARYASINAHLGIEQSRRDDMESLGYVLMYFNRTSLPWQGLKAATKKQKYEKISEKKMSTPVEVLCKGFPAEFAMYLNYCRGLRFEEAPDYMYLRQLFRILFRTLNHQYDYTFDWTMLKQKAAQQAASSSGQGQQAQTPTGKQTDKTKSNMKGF
CDK4/CycD3, sequence (P11802 whole entry): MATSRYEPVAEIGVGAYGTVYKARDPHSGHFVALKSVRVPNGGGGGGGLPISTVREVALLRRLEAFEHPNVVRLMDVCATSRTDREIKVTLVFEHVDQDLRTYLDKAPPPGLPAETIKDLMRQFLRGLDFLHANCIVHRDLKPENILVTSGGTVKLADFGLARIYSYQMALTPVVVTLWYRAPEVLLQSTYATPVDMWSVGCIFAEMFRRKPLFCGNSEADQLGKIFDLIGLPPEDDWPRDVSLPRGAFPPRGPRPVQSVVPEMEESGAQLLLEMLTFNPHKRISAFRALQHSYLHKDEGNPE
CDK4/CycD3, sequence (P30281 whole entry partner): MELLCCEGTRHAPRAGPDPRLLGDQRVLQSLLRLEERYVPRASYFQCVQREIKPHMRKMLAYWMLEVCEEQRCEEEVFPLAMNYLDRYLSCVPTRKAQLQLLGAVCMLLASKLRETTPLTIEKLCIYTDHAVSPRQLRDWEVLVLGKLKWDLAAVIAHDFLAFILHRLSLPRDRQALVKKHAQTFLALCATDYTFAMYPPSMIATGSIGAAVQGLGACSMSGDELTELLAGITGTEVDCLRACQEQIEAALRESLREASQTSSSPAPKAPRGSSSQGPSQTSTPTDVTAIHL
T4 sequence (Q9H422 whole entry): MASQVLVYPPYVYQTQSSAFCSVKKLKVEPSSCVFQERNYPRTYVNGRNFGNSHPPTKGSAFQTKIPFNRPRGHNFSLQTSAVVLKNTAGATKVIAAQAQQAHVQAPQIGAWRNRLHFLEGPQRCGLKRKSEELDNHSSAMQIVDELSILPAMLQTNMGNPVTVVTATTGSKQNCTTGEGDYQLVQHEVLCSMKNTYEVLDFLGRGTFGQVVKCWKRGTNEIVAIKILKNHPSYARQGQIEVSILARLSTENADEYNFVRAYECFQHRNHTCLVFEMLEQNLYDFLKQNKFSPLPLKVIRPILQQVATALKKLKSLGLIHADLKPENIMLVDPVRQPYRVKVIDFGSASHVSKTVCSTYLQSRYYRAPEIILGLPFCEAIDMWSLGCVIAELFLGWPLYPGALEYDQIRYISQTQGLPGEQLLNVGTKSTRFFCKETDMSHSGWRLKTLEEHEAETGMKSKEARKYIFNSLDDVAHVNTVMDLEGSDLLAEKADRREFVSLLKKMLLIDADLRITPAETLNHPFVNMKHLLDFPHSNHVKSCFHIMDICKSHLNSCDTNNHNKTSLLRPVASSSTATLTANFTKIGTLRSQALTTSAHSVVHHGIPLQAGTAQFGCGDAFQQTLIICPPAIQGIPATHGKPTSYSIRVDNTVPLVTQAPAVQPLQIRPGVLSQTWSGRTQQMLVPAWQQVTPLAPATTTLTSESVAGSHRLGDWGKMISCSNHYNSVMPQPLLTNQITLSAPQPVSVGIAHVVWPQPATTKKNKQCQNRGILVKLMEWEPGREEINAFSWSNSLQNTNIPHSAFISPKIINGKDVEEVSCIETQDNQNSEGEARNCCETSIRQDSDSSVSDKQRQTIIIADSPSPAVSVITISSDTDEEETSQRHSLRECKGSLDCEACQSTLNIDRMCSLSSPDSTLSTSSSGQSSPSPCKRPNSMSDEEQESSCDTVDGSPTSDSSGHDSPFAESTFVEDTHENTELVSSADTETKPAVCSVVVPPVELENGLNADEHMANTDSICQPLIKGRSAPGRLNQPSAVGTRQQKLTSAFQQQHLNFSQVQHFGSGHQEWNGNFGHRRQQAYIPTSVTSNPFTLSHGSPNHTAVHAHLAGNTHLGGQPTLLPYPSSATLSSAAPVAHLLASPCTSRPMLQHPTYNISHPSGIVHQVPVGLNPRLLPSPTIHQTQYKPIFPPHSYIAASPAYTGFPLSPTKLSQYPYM
T26 sequence (P04626 23-1255): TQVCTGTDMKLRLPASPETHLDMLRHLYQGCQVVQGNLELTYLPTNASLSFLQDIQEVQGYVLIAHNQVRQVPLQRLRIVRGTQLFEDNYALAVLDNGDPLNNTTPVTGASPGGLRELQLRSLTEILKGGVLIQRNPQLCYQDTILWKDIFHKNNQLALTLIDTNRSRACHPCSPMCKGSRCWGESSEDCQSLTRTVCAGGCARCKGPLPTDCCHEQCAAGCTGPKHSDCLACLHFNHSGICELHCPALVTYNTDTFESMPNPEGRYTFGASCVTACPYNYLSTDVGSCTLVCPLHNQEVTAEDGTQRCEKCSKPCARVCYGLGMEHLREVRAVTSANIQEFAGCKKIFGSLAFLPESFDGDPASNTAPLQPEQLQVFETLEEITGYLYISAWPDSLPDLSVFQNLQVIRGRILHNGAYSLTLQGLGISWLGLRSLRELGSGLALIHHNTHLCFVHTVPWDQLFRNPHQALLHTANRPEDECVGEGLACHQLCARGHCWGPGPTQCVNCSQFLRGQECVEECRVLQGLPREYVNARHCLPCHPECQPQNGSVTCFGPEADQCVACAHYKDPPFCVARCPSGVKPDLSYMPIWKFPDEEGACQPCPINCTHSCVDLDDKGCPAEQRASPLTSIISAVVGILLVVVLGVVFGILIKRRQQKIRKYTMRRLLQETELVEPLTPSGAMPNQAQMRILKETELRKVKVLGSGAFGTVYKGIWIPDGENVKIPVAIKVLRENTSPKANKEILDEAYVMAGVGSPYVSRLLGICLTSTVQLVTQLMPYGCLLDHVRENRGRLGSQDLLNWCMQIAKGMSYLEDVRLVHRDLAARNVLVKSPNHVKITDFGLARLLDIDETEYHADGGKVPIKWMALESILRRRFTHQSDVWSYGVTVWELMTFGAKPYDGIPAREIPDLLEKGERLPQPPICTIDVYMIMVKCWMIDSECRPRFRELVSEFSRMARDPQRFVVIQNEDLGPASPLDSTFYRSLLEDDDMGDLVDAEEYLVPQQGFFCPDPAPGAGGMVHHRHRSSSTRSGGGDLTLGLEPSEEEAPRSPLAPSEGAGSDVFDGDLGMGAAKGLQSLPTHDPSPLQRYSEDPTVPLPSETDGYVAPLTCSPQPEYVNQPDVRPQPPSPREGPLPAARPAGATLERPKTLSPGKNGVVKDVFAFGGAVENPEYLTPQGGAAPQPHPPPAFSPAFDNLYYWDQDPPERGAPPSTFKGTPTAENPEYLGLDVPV
T6 sequence (P07948 whole entry): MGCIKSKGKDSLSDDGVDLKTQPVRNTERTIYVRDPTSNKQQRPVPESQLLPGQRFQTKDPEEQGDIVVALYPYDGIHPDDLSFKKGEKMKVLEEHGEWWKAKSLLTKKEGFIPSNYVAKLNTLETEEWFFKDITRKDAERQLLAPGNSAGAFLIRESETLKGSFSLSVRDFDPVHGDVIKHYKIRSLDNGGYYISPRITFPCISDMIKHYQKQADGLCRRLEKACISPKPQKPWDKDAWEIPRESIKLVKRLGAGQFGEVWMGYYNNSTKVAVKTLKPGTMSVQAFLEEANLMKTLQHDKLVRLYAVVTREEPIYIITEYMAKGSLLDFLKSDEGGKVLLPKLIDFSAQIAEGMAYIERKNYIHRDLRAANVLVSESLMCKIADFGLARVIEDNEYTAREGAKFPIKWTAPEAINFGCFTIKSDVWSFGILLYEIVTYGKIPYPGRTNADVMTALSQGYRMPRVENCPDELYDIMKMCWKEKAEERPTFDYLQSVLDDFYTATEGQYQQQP
T16 sequence (P53350 whole entry): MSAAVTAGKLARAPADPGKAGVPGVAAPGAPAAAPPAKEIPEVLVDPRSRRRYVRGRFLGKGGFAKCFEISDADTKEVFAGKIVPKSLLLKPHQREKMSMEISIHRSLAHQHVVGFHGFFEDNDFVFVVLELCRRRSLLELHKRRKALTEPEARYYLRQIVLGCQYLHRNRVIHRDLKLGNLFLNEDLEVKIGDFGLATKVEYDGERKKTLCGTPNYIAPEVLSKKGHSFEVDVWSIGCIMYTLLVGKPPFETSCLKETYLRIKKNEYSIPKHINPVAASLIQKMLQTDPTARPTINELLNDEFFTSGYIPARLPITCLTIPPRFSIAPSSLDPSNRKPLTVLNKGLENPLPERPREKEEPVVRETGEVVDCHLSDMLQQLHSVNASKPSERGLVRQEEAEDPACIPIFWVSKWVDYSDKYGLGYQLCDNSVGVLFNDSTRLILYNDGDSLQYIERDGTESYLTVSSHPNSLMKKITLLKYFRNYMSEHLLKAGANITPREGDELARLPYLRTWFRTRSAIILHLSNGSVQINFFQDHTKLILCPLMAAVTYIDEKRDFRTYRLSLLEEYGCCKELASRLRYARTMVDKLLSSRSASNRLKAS

With `C[C@@H]1CC[C@H]2C(C)(C)CCC[C@]2(C)c2c1oc1c(C=O)c(O)c(O)cc21` [LG-1, liphagal] the inhibition at 10 µM (PASK) was 17.4%, the inhibition at 10 µM (RAK4) was -2.8% and the inhibition at 10 µM (ALK(R1275Q)) was -0.5%. The inhibition at 10 µM (HPK3) was 20.5%, the inhibition at 10 µM (ALK(L1196M)) was -1.5% and the inhibition at 10 µM (LYNa) was 7.6%. For the same compound, the inhibition at 10 µM (DCAMKL2) was 14%, the inhibition at 10 µM (CKIα) was 20.5% and the inhibition at 10 µM (TYRO3) was -6.6%. The inhibition at 10 µM (NEK9) was 27.3%, the inhibition at 10 µM (FRK) was 1.4% and the inhibition at 10 µM (QIK) was 2.7%. It also gave an inhibition at 10 µM (CaMK1δ) of 57.7%, an inhibition at 10 µM (FER) of 42.8% and an IC50 (CDK4/CycD3) of 19.9 µM. For the same compound, the inhibition at 10 µM (CK2α1/β) was -0.9%, the inhibition at 10 µM (PLK1) was 31.3% and the inhibition at 10 µM (EGFR(T790/L858R)) was -2.2%. The inhibition at 10 µM (CHK2) was 26.5%, the inhibition at 10 µM (PDGFRα) was 8.2% and the inhibition at 10 µM (Nuak2) was 1.5%. For the same compound, the inhibition at 10 µM (BMX) was 6.5%, the inhibition at 10 µM (NPM1-ALK) was 2.3% and the inhibition at 10 µM (YES(T348I)) was 3.7%. It also gave an inhibition at 10 µM (INSR) of 14.1%, an inhibition at 10 µM (PDHK2) of 47.2% and an inhibition at 10 µM (PIM2; PIM2) of 63.5%. The “inhibitory activity against PIM2” value (PIM2; in words, 10 μM) was “potent inhibitory activity”, the inhibition at 10 µM (HER2) was -1.6% and the inhibition at 10 µM (PDGFRα(V561D)) was 7.1%. For the same compound, the inhibition at 10 µM (ROCK1) was 0.5%, the inhibition at 10 µM (MGC42105) was -1.7% and the inhibition at 10 µM (MARK1) was -3.5%. It also gave an inhibition at 10 µM (DDR1) of 60.5%, an inhibition at 10 µM (FYN(isoform a)) of 0.5% and an inhibition at 10 µM (ALK(G1202R)) of -0.3%. For the same compound, the inhibition at 10 µM (SGK3) was -0.5%, the inhibition at 10 µM (ROS) was 8.6% and the IC50 (CDK6) was 6.78 µM.
